US20120122908A1, “Novel C-4 Substituted Retinoids” (University of Maryland, priority 2000, published 2012)

Test system: MCF-7Ca tumors
Assay: Growth of MCF-7Ca tumors in mice
Format: in vivo
Details: 10 mg/kg, after twenty-eight days
Method: FIG. 12. VN/14-1RA inhibition of growth of MCF-7Ca tumors in nude mice.
LNCaP cells are cultured as described above. Subconfluent cell are scraped into DPBS, counted and suspended in Matrigel (3×10^7 cells/mL). Male SCID mice 4-6 weeks old are obtained from NCI, Frederick, Md. Each mouse is inoculated s.c. with 0.1 mL of the cell suspension at two sites. Growth rate are determined from tumor volumes using calipers using well-known techniques (Yue W, Wang J, Savinov A, Brodie A, Effect of aromatase inhibitors on growth of mammary tumors in a nude mouse model, Cancer Res, July 15; 55(14):3073-7 (1995). Tumor volumes are calculated according to the equation: V=4/3×π×r1^2×r2 (r1<r2). Tumors are allowed to grow for 4-5 weeks following cell inoculation. Mice are then grouped (6 mice per group) for castration or treatment with vehicle, liarozole (as a comparison), or one of the C-4 substituted ATRA analogs (at various concentration based on IC50 and/or Ki values for each novel compound, mg/kg/day). The route of administration of C-4 substituted ATRA analogs include s.c., i.m., i.p., and oral. Tumors are measured weekly for 4-5 weeks of treatment and tumor volumes calculated. Blood is collected from the euthanized animals that are autopsied 1 hour after the last injection. Tumors are excised, weighed and stored at −80° C. until required. […]

Compound: CC1=C(/C=C/C(C)=C/C=C/C(C)=C/C(=O)O)C(C)(C)CCC1n1ccnc1 (racemic) [VN/14-1, (±)-4-(1H-imidazole-1-yl)retinoic acid]
- size of MCF-7Ca tumors relative to control group: one-half
